Drawing on patent publication US20090318456A1, “SUBSTITUTED PTERIDINES FOR THE TREATMENT AND PREVENTION OF VIRAL INFECTIONS” (Gilead Sciences, Inc., priority 2006, published 2009), this text covers CC50 and EC50 for 28 molecules.

Read-outs that look alike come from different tables or passages of the source.

What is called CC50 is the concentration giving 50% cytotoxicity. Read a high CC50 as better tolerance by the cells. By EC50 is commonly meant the concentration that produces a half-maximal response.

Series [1] in a line: CC50 assay (CellTiter-Glo) in Huh-7 HCV replicon cells. The series is classed as cell-based, human. To be noted: human. The method, then:
(§1) The anti HCV activity of specifically 2,4,6-trisubstituted pteridine derivatives was tested in a human hepatoma Huh-7 cell line harbouring a HCV replicon. The assay comprised the following steps:
(§2) Step 1: compound preparation and serial dilution involved the following alternatives, depending upon the water solubility of pteridine derivative being tested: • 1. with respect to water soluble 2,4,6-trisubstituted pteridine derivatives, 500 μL of solution in cell media (DMEM, 10% FBS, P/S, L-Glutamine) was prepared with a concentration that is twice the concentration of the starting final serial dilution concentration. 150 μL of the solution was added to the pre-specified wells in column 1 of a 96-well cell culture plate (PerkinElmer, white plate, cat. #6005181, for EC50 assay; black plate, cat. #6005182 for CC50 assay). The rest of the plate, i.e. columns 2-12, was filled with 100 μL of cell media. The plate was then placed on a Precision 2000 Workstation in order to start serial dilution. Pteridine compounds were diluted three times each step from column 1 to column 10. Column 11 was used as a blank control (no pteridine compound added). • 2. With respect to poorly water soluble pteridine derivatives, DMSO was used as a solvent, and serial dilution was performed in 50% DMSO in water, in a 384-well plate. A solution containing the relevant compound at 100-fold the concentration of the starting final serial dilution concentration was prepared in 50% DMSO in water and added to the pre-specified wells in column 1 of a polypropylene 384-well plate. This plate was then placed on a Precision 2000 Workstation in order to start serial dilution. After serial dilution, 2 μL of the solution was transferred from the 384-well plate to a 96-well cell culture plate containing 100 μL of cell media on a Biomek FX Workstation. The DMSO concentration in the final assay condition was 0.5% after cells have been added to the plate and the total volume in each well was brought to 200 μL. Step 2: to each well of the serial dilution plate prepared in step 1, 100 μL of cell media containing 6000 suspended Huh-7 HCV replicon cells was added with a Multidrop workstation. Plates were incubated for 3 days at 37° C. with 5% CO2. Step 3: detection: • 1) with respect to the EC50 assay, the media in a 96-well cell culture plate was aspirated with a Biotek EL405 plate-washer. A volume of 200 μL of a solution containing a 1:1 mixture of a cell-lysis buffer (commercially available from Promega, Luciferase Cell Culture Lysis 5× Reagent, cat. #E1531) and a luciferase substrate solution (commercially available from Promega, Luciferase Assay, cat. # E4550) was added to each well of the plate with Multidrop. The plate was incubated for 30 minutes at room temperature before the luminescence signal was measured with a TopCount plate-reader. • 2) with respect to the CC50 assay, 100 μL of a pre-mixed CellTiter-Glo (commercially available from Promega, cat. # G7572) solution was added directly to the cell culture in each well of the plate and the luminescence signal was measured with a TopCount plate-reader after 10 minutes of incubation at room temperature.
(§3) Results are expressed by the following data: • the 50% effective concentration (EC50), i.e. the concentration that protects 50% of the cell monolayer from virus-induced cythopathic effect, and • the 50% cytostatic concentration (CC50), i.e. the concentration that results in 50% inhibition of cell growth.
A general note: In ATP-based viability assays light output follows the ATP content of the culture.

In series [2] the test system is HCV replicon. The experiment in a line: Anti-HCV replicon assay (EC50, luciferase). The series is classed as cell-based, Hepatitis C virus (HCV). The method, then:
as §1, §2, §3
In general terms: Replicon systems follow genome replication, usually without infectious particles.

Series [3] deals with Huh-7 HCV replicon cells. In words: CC50 assay (CellTiter-Glo) in Huh-7 HCV replicon cells. The format is cell-based, human. How it is done: as §1, §2, §3
Setting [4] is: Table 1, Huh-7 HCV replicon cells, 3 days, luciferase, read-out: EC50.
[5] abbreviates: Table 3, Huh-7 HCV replicon cells, 3 days, luciferase, read-out: EC50.
[6] abbreviates: Hepatitis C virus, 72 h, Table 4, Huh-7 HCV replicon cells, 3 days, luciferase, read-out: EC50.

With `CC(C)Oc1nc(N)nc2ncc(-c3ccc(F)cc3)nc12` [2-amino-4-isopropoxy-6-(4-fluorophenyl)-pteridine], the half-maximal cytotoxic concentration (CC50) at 3 days in series [1] (Table 6) is above 20000 nM. Further, the EC50 in series [2] (Hepatitis C virus, 72 h, Table 6, Huh-7 HCV replicon cells, 3 days, luciferase, read-out: EC50) is below 300 nM.
`COc1ccc(-c2cnc3nc(N)nc(N4CCN(Cc5ccccn5)CC4)c3n2)cc1OC` [Example 99]: in series [3] (Table 1, 3 days), the cytotoxic concentration (CC50) fell in the range of 10000 to 20000 nM. The concentration for a half-maximal effect (EC50) in series [2] (setting [4]) was in the range of 300 to 1000 nM.
The matching figures for `COc1ccc(-c2cnc3nc(N)nc(N4CCN(CCC#N)CC4)c3n2)cc1OC` [Example 100]: 10000 to 20000 nM and below 300 nM.
In series [3] (Table 1, 3 days), `CCOCCN1CCN(c2nc(N)nc3ncc(-c4ccc(OC)c(OC)c4)nc23)CC1` [Example 104] had a cytotoxic concentration (CC50) above 20000 nM. Further, the EC50 in series [2] (setting [4]) was below 300 nM.
For `COc1ccc(-c2cnc3nc(N)nc(N4CCN(CC5CCCO5)CC4)c3n2)cc1OC` (centres unmarked) [Example 108], the CC50 in series [3] (Table 1, 3 days) was above 20000 nM. The EC50 in series [2] (setting [4]) lay within 300 to 1000 nM.
Taken in the same sequence, the figures for `COc1ccc(-c2cnc3nc(N)nc(N4CCN(CC5OCCO5)CC4)c3n2)cc1OC` [Example 109] were above 20000 nM and 300 to 1000 nM.
The matching figures for `COc1ccc(-c2cnc3nc(N)nc(N4CCN(C(=O)NCc5ccccc5)CC4)c3n2)cc1OC` [Example 111]: 10000 to 20000 nM and below 300 nM.
The molecule `COc1ccc(-c2cnc3nc(N)nc(N4CCN(C(=O)NCc5ccc(F)cc5)CC4)c3n2)cc1OC` [Example 112] gave a CC50 in series [3] (Table 1, 3 days) below 10000 nM. For the same molecule, the EC50 in series [2] (setting [4]) was below 300 nM.
`COc1ccc(-c2cnc3nc(N)nc(N4CCN(C(=O)Nc5ccc(F)c(Cl)c5)CC4)c3n2)cc1OC` [Example 113] had a 50% cytotoxic concentration (CC50) in series [3] (Table 1, 3 days) below 10000 nM. Further, the 50% effective concentration (EC50) in series [2] (setting [4]) was below 300 nM.
The matching figures for `COc1ccc(-c2cnc3nc(N)nc(N4CCN(C(=O)Nc5cccs5)CC4)c3n2)cc1OC` [Example 114]: below 10000 nM and below 300 nM.
The matching figures for `COc1ccc(-c2cnc3nc(N)nc(N4CCN(C(=O)NCCc5cccs5)CC4)c3n2)cc1OC` [Example 115]: below 10000 nM and below 300 nM.
`CCCCNC(=O)N1CCN(c2nc(N)nc3ncc(-c4ccc(OC)c(OC)c4)nc23)CC1` [Example 118] had a CC50 in series [3] (Table 1, 3 days) below 10000 nM. For the same molecule, in series [2] (setting [4]), the concentration giving a half-maximal response (EC50) was below 300 nM.
Taken in the same sequence, the figures for `COc1ccc(-c2cnc3nc(N)nc(N4CCN(C(=O)N(C)c5ccccc5)CC4)c3n2)cc1OC` [Example 119] were below 10000 nM and below 300 nM.
Take `CCN(C(=O)N1CCN(c2nc(N)nc3ncc(-c4ccc(OC)c(OC)c4)nc23)CC1)c1ccccc1` [Example 121]: the CC50 in series [3] (Table 1, 3 days) is below 10000 nM. Further, the EC50 in series [2] (setting [4]) is below 300 nM.
Taken in the same sequence, the figures for `COc1ccc(-c2cnc3nc(N)nc(N4CCN(C(=O)Nc5cccc(Cl)c5)CC4)c3n2)cc1OC` [Example 122, 2-amino-4-(N-3-chloro-phenyl-carbamoyl-piperazin-1-yl)-6-(3,4-dimethoxyphenyl)pteridine] were below 10000 nM and below 300 nM.
The matching figures for `COc1ccc(-c2cnc3nc(N)nc(N4CCN(C(=O)Nc5cccc(C(F)(F)F)c5)CC4)c3n2)cc1OC` [Example 123, 2-amino-4-(N-3-trifluoromethyl-phenyl-carbamoyl-piperazin-1-yl)-6-(3,4-dimethoxyphenyl)pteridine]: below 10000 nM and below 300 nM.
Turning to `COc1ccc(-c2cnc3nc(N)nc(N4CCN(C(=O)Nc5ccc(Br)cc5)CC4)c3n2)cc1OC` [Example 124, 2-amino-4-(N-4-bromo-phenyl-carbamoyl-piperazin-1-yl)-6-(3,4-dimethoxyphenyl)pteridine], the CC50 in series [3] (Table 1, 3 days) was below 10000 nM. In addition, the 50% effective concentration (EC50) in series [2] (setting [4]) is below 300 nM.
Take `CCOc1nc(N)nc2ncc(-c3ccc(F)cc3)nc12` [Example 131, 2-amino-4-ethoxy-6-(4-fluorophenyl)-pteridine]: in series [1] (Table 2), the CC50 at 3 days was above 20000 nM. Moreover, in series [2] (Hepatitis C virus, 72 h, Table 2, Huh-7 HCV replicon cells, 3 days, luciferase, read-out: EC50), the half-maximal effective concentration (EC50) is below 300 nM.
On to `CCC(C)Nc1nc(N)nc2ncc(-c3ccc(OC)c(OC)c3)nc12` (centres unmarked) [Example 230], for which, in series [3] (Table 3, 3 days), the CC50 is above 20000 nM. The EC50 in series [2] (setting [5]) was 300 to 1000 nM.
Taken in the same sequence, the figures for `Nc1ccc(-c2cnc3nc(N)nc(N4CCOCC4)c3n2)cc1` [Example 231] were above 20000 nM and 300 to 1000 nM.
The matching figures for `CCC(C)Nc1nc(N)nc2ncc(-c3ccc(OC)c(OC)c3)nc12` (centres unmarked) [Example 234]: above 20000 nM and 300 to 1000 nM.
For the molecule `CCOc1nc(NCc2ccc(F)cc2)nc2ncc(-c3ccc(F)cc3)nc12` [Example C], the CC50 at 3 days in series [1] (Table 4) is above 20000 nM. For the same molecule, the half-maximal effective concentration (EC50) in series [2] (Hepatitis C virus, Huh-7, 72 h) is below 300 nM.
The matching figures for `NS(=O)(=O)c1ccc(CNc2nc(NCC(F)(F)F)c3nc(-c4ccc(F)cc4)cnc3n2)cc1` [Example D, 4-{[6-(4-fluoro-phenyl)-4-(2,2,2-trifluoro-ethylamino)-pteridin-2-ylamino]-methyl}-benzenesulfonamide]: above 20000 nM and below 300 nM.
For `Fc1ccc(CNc2nc(NCC(F)(F)F)c3nc(-c4ccc(F)cc4)cnc3n2)cc1` [Example E, N2-(4-Fluoro-benzyl)-6-(4-fluoro-phenyl)-N4-(2,2,2-trifluoro-ethyl)-pteridine-2,4-diamine], the 50% cytotoxic concentration (CC50) at 3 days in series [1] (Table 4) is below 10000 nM. For the same molecule, in series [2] (setting [6]), the half-maximal effective concentration (EC50) was below 300 nM.
The matching figures for `CC(Nc1nc(NCC(F)(F)F)c2nc(-c3ccc(F)cc3)cnc2n1)c1ccc(S(N)(=O)=O)cc1` (centres unmarked) [Example F, 4-{1-[6-(4-Fluoro-phenyl)-4-(2,2,2-trifluoro-ethylamino)-pteridin-2-ylamino]-ethyl}-benzenesulfonamide]: below 10000 nM and below 300 nM.
Take `CCOc1nc(NCc2ccc(S(N)(=O)=O)cc2)nc2ncc(-c3ccc(F)cc3)nc12` [Example G, 4-{[4-Ethoxy-6-(4-fluoro-phenyl)-pteridin-2-ylamino]-methyl}-benzenesulfonamide]: in series [1] (Table 4), the half-maximal cytotoxic concentration (CC50) at 3 days was above 20000 nM. For the same molecule, in series [2] (setting [6]), the concentration for a half-maximal effect (EC50) is below 300 nM.
`NS(=O)(=O)c1ccc(CNc2nc(NCC(F)(F)F)c3nc(-c4ccc(C(=O)NC5CC5)cc4)cnc3n2)cc1` [Example H, N-Cyclopropyl-4-[2-(4-sulfamoyl-benzylamino)-4-(2,2,2-trifluoro-ethylamino)-pteridin-6-yl]-benzamide] gave a half-maximal cytotoxic concentration (CC50) at 3 days in series [1] (Table 4) above 20000 nM. This molecule had an EC50 in series [2] (Hepatitis C virus, Huh-7, 72 h) of 300 to 1000 nM.
In series [1] (Table 4), `NS(=O)(=O)c1ccc(CNc2nc(NCC(F)(F)F)c3nc(-c4ccc(F)c(Cl)c4)cnc3n2)cc1` [Example I, 4-{[6-(3-Chloro-4-fluoro-phenyl)-4-(2,2,2-trifluoro-ethylamino)-pteridin-2-ylamino]-methyl}-benzenesulfonamide] returned a 50% cytotoxic concentration (CC50) at 3 days of 10000 to 20000 nM. For the same molecule, the concentration giving a half-maximal response (EC50) in series [2] (Hepatitis C virus, Huh-7, 72 h) lay in the range of 300 to 1000 nM.
